Experiments:
[1] = Pharmacokinetic experiment in rat (IV and PO, plasma LC-MS/MS); details: SD rats
Procedure: (§1) Ponatinib (AP24534) was administered intravenously (IV) and orally (PO) to SD rats. Blood samples were taken at different time points. LC-MS/MS was used to determine the concentration of compound in the plasma of rats after administration of the test compound, and the relevant pharmacokinetic parameters were calculated to examine oral bioavailability and pharmacokinetic properties of the compound in rats.
as §1, with “Compound HuFGFR267” for “Ponatinib (AP24534)”, “intravenously” for “intravenously (IV)”, “orally” for “orally (PO)”

[2] = tested on: RET signaling pathway in TT and BaF3/CCDC6-RET cells; assay: Western blotting of RET signaling pathway activation in cells; type: cell-based; details: compounds 2 hours; P-RET, P-AKT, P-ErK
Procedure: Detecting the Effect of Compounds on the Activation of RET Signaling Pathway in TT and BaF3/CCDC6-RET Cells by Western Blotting
The cells were seeded into a 12-well plate (250,000/well). After incubation for 18-24 hours, the compounds were added to react for 2 hours, and then the cells were collected and firstly washed once with cold PBS (containing 1 mmol sodium vanadate); then 1×SDS gel loading buffer (50 mmol Tris-HCl (pH 6.8), 100 mmol DTT, 2% SDS, 10% glycerol, 1 mmol sodium vanadate, 0.1% bromophenol blue) was added to lyse cells. The cell lysate was heated in a boiling water bath for 10 minutes, and then centrifuged at 12,000 rpm for 10 minutes at 4° C.
The supernatant was taken for SDS-PAGE electrophoresis (Mini-PROTEAN 3 Cell, Bio-Rad, Hercules, Calif., USA). After electrophoresis, the proteins were transferred to a nitrocellulose membrane using a semi-dry electrotransfer system (Amersham Life Sciences, Arlington Heights, Ill., USA). The nitrocellulose membrane was placed in a blocking solution (5% skim milk powder diluted in TBS containing 1 mmol sodium vanadate) for 2 hours at room temperature, and then the membrane was placed and reacted with a primary antibody at 4° C. overnight. […] The membrane was placed in a secondary antibody solution and reacted for 1-2 hours at room temperature. After the membrane was washed three times as above, the membrane was stained using ECL (Picece, Rockford, Ill.) reagent was used for staining and then developed.

CN1CCN(Cc2ccc(NC(=O)c3ccc(Cl)c(C#Cc4cccnc4N)c3)cc2C(F)(F)F)CC1 [Example 1, 3-(2-aminopyridine-3-ethynyl)-4-chloro-N-(4-((4-methylpiperazin-1-yl)methylene)-3-(trifluoromethyl)phenyl)benzamide]
AUC0-t ([1]; IV (2 mg/kg)): 2720 ng·h/mL
CLplasma ([1]; IV (2 mg/kg)): 11.9 mL/min/kg
T1/2 ([1]; IV (2 mg/kg)): 6.00 h
Vdss ([1]; IV (2 mg/kg)): 4.88 L/kg
AUC0-t ([1]; PO (10 mg/kg)): 4961 ng·h/mL
Cmax ([1]; PO (10 mg/kg)): 346 ng/mL
T1/2 ([1]; PO (10 mg/kg)): 10.5 h
Tmax ([1]; PO (10 mg/kg)): 5.33 h
F ([1]; PO (10 mg/kg) vs IV (2 mg/kg)): 36.5%
inhibition of RET phosphorylation and downstream signaling pathway (Western blot, FIG. 1) [2]: inhibited RET phosphorylation and the downstream signaling pathway

Source: US10988456B2, “O-aminoheteroaryl alkynyl-containing compound, preparation method therefor, and use thereof” (SHANGHAI INSTITUTE OF MATERIA MEDICA, CHINESE ACADEMY OF …, priority 2017, dated 2021)
